From patent US6355695B1, “Substituted heterocycles” (Zeneca Limited, priority 1995, dated 2002)
Where a name gives a salt, the structure may show the parent alone.

Columns and labels:
[1] = test system: guinea pig trachea; experiment: Guinea Pig Assay (Test B): functional assay in guinea pig trachea, antagonism of agonist NKA or [b-ala^8]-NKA(4-10); assay type: cell-based; conditions: Cavia porcellus, read-out: pKB in Test B (converted)
Excerpt: Guinea Pig Assay (Test B)

[2] = target: T1, human NK2 receptor expressed in Mouse Erythroleukemia (MEL) cells (Homo sapiens, UniProt P21452); experiment: Neurokinin A (NKA) Receptor-binding Assay (Test A)
T1 construct: expressed in transfected cells; host or cells: Mouse Erythroleukemia (MEL) cells
T1 sequence (P21452 1-398): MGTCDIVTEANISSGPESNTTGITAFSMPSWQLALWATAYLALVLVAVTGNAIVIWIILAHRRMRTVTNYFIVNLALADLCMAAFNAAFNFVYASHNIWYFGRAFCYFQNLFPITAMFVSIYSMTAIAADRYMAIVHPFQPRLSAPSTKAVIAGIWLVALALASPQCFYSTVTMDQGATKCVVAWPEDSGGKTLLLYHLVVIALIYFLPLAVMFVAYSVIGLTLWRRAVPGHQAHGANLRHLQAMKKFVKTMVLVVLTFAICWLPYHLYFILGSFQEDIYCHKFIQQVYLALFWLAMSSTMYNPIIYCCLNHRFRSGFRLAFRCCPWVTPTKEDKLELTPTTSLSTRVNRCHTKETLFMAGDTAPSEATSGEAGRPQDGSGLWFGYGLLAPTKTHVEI
Excerpt: Neurokinin A (NKA) Receptor-binding Assay (Test A)

Structure (SMILES)	Kb [1]	Ki [2]
O=C1NCCCN1C1CCN(CCC(Cn2cnnc2-c2ccccc2)c2ccc(Cl)c(Cl)c2)CC1 (centres unmarked) [Example 3, 1-[1-[3-(3,4-Dichlorophenyl)-4-(2-phenyl-1,3,4-triazol-1-yl)butyl]piperidin-4-yl]tetrahydropyrimidin-2-one hydrochloride]	2 nM	
OC1(c2ccccc2)CCN(CCC(Cn2ccnc2-c2ccccc2)c2ccc(Cl)c(Cl)c2)CC1 (centres unmarked) [Example 2, 1-[3-(3,4-Dichlorophenyl)-4-(2-phenylimidazol-1-yl)butyl]-4-hydroxy-4-phenylpiperidine dihydrochloride]		23 nM
